For assay [1], the target named is T1, Butyryl-cholinesterase (Equus caballus, UniProt P81908).
T1 construct: butyryl-cholinesterase was from equine serum; purchased Sigma-Aldrich; host or cells: equine serum
The assay is described as follows: biochemical. In kind it is biochemical. The note with it: for IC50: Ellman method, 37 °C, PBS pH 7.4, 412 nm, read-out: IC50 Value Butyrylcholinesterase. An excerpt:
(§1) HPLC-grade methanol and acetonitrile were purchased from Shanghai, China (Sinopharm Chemical Reagent Co., Ltd., Shanghai, China). Acetyl-cholinesterase was from electric eel, butyryl-cholinesterase was from equine serum, and acetylthiocholine iodide was purchased from Sigma-Aldrich (Sigma-Aldrich company, St. Louis, MO, USA). […] AB-8 macroporous resin was purchased from Yuanye (Yuanye Biochemical Technology Co., Ltd., Shanghai, China).
(§2) The Ellman method was used to determine the inhibitory activity of acetyl-cholinesterase and butyryl-cholinesterase of each monomer compound. Briefly, 150 µL of PBS buffer solution (pH = 7.4), 10 µL of the tested compound solution, and 20 µL of acetyl-cholinesterase or butyryl-cholinesterase solution (concentration of 0.2 U/mL) were transferred to a 96-well plate and placed in a gas bath constant temperature oscillator at 37 °C for 15 min. […] Then, 10 µL PBS was added to the blank group to exclude other irrelevant factors from affecting the experimental results and ensure the rationality of the experimental results. […] Inhibition Rate = (Anegative control group − Atest group/Anegative control group − Ablank group) × 100%(2)
In general terms: Ellman's reagent forms a yellow product with free thiols.

In assay [2] the target is T2, Acetyl-cholinesterase (Electrophorus electricus, UniProt O42275).
T2 construct: Acetyl-cholinesterase was from electric eel; purchased Sigma-Aldrich; host or cells: electric eel (natural source)
T2 sequence (O42275 24-633): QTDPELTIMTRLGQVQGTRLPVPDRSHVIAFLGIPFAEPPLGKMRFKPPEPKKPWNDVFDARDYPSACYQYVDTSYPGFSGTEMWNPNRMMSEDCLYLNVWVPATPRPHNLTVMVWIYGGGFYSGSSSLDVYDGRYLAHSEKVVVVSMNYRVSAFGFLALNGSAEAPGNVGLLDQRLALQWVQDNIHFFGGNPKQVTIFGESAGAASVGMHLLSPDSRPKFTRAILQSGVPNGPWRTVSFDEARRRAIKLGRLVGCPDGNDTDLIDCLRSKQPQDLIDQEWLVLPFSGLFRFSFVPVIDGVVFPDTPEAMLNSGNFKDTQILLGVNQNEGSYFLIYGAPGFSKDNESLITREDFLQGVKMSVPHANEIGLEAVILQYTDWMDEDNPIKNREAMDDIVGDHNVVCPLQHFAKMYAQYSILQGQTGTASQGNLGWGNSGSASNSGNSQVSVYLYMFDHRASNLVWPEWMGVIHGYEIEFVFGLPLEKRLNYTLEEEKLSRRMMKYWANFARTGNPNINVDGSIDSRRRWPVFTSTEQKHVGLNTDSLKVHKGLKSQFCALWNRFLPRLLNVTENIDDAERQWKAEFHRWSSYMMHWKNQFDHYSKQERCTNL
The assay is described as follows: biochemical. The format is biochemical.
Description: as §1, §2

The mark [3] stands for this setting: Ellman method, 37 °C, PBS pH 7.4, 412 nm, read-out: IC50 Value Acetylcholinesterase.

The values below come from publication PMC8949104, “Bioactivity-Guided Separation of Anti-Cholinesterase Alkaloids from Uncaria rhynchophlly (Miq.) Miq. Ex Havil Based on HSCCC Coupled with Molecular Docking” (Molecules, 2022).

Molecules are shown by their SMILES. Where two headings read alike, the source gives them in different places.

T1 sequence (P81908 whole entry): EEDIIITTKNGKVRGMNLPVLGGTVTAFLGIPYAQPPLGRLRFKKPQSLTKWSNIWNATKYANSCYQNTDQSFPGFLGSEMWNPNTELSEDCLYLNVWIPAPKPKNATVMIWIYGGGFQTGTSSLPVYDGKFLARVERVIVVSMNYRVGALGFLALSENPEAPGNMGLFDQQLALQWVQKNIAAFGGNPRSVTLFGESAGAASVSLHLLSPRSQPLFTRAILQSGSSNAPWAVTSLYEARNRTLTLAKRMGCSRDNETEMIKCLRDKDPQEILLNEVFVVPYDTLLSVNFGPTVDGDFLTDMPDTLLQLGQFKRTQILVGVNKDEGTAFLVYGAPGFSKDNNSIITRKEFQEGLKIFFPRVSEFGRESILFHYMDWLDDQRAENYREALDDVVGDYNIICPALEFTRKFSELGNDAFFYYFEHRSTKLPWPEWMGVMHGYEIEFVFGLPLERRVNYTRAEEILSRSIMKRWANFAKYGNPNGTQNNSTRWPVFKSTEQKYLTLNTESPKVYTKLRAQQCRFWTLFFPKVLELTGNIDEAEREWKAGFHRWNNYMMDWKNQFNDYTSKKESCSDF

What is called IC50 is the concentration at which inhibition is half-maximal. For the compound `C=CC1C2C[C@@H]3c4[nH]c5ccccc5c4CCN3C(=O)C2=CO[C@H]1O[C@H]1O[C@H](CO)[C@@H](O)[C@H](O)[C@H]1O` (stereo partly drawn) [Compound 3, strictosamide], the figures for the IC50 in assay [1] and in assay [2] were 6.47 ± 0.72 µM and 46.6 ± 0.58 µM, respectively.
For `C=CC1C2C[C@H]3c4[nH]c5ccccc5c4CCN3C(=O)C2=CO[C@H]1O[C@H]1O[C@H](CO)[C@@H](O)[C@H](O)[C@H]1O` (stereo partly drawn) [Compound 2, vincosamide] the same measures were 23.18 ± 0.14 µM and 12.4 ± 0.86 µM.
For the compound `COC(=O)C1=COC(OC2OC(CO)C(O)C(O)C2O)C2C(O)CN3CCc4c([nH]c5ccccc45)C3CC12` (stereo not drawn) [Compound 5, 3α-dihydrocadambine], the IC50 in assay [1] stood at 33.3 ± 0.51 µM; in assay [2] (setting [3]), 37 ± 1.57 µM.
Take `C=C[C@H]1C(O[C@H]2O[C@H](CO)[C@@H](O)[C@H](O)[C@H]2O)OC=C2C(=O)N3CC[C@]4(C(=O)Nc5ccccc54)[C@H]3C[C@H]21` (stereo partly drawn) [Compound 1, 7-epi-javaniside]: the values for the IC50 in assay [1] and in assay [2] (setting [3]) were 2.13 ± 0.1 µM and 2.85 ± 0.5 µM, respectively. Besides, the “butyryl-cholinesterase inhibitory activity (in words)” value in assay [1] (qualitative statement) is listed as “close to that of the positive drug”. Also, the “acetyl-cholinesterase inhibitory activity (in words)” value in assay [2] (qualitative statement) is “close to that of the positive drug”.
On to `COC(=O)C1=COC(OC2OC(CO)C(O)C(O)C2O)C2C3CN4CCc5c([nH]c6ccccc56)C4(CC12)O3` (stereo not drawn) [Compound 4, cadambine], for which the IC50 in assay [1] came to 30.7 ± 0.69 µM; in assay [2], 26.1 ± 2.12 µM.
